Data on 84 compounds can be found in patent publication US20200031778A1, “NOVEL 5-SUBSTITUTED IMIDAZOLYLMETHYL DERIVATIVES” (Bayer CropScience Aktiengesellschaft, priority 2016, published 2020).

This series can be described thus: Log P by HPLC on reversed phase columns (EEC directive 79/831 Annex V.A8; methods [a], [b], [c]). It counts as physicochemical. In outline:
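Log P derived from retention times, interpolated linearly between bracketing straight-chain alkan-2-ones (3–16 carbons) of known Log P. Eluents ran acetonitrile 10% to 95% against water with 0.1% formic acid ([a], acidic), 0.001 M ammonium acetate ([b], neutral) or 0.1% phosphoric acid ([c], acidic); UV read-out.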

On to `N#Cc1cncn1CC(O)(C#CC1(c2ccc(F)cc2)CC1)C1(Cl)CC1` (stereo not drawn) [I-605], for which the LogP was 2.98^[a].
As for `C/C=C(\C)C(O)(Cn1cncc1C#N)c1ccc(F)cc1F` (stereo not drawn) [I-396], the LogP was 2.41^[a].
Consider `N#Cc1cncn1CC(O)c1ccc(Oc2ccc(Cl)nc2)nc1C(F)(F)F` (stereo not drawn) [I-151], for which the LogP was 2.37^[a].
For the compound `N#Cc1cncn1CC(O)(c1cc(Cl)c(Cl)cc1F)C1(Cl)CC1` (stereo not drawn) [I-621], the LogP was 2.80^[a].
`CCCC#Cc1ccc(C(O)(Cn2cncc2C#N)C2(Cl)CC2)c(F)c1` (stereo not drawn) [I-652]: the LogP was 3.48^[a].
`N#Cc1cncn1CC(O)(c1cnc(Cl)cc1Br)C1(F)CC1` (stereo not drawn) [I-560]: the LogP is 1.98^[a].
Same read-out and setting: then `N#Cc1cncn1CC(O)(CC1CC1)c1cnc(Cl)cc1Cl` (stereo not drawn) [I-510], with 2.07^[a]; and `CC(C)(C)CC(O)(Cn1cncc1C#N)c1ccc(OC(F)(F)F)cc1` (stereo not drawn) [I-275], with 3.50^[a].
Take `N#Cc1cncn1CC(O)c1cnc(Oc2ccc(Br)cc2)cc1C(F)F` (stereo not drawn) [I-134]: the LogP is 2.43^[a].
As to `N#Cc1cncn1CC(O)(c1cc(F)c(F)c(Cl)c1)C1(F)CC1` (stereo not drawn) [I-476], the LogP is 2.54^[a].
With `N#Cc1cncn1CC(O)(c1ccc(C(F)(F)F)cc1Br)C1(F)CC1` (stereo not drawn) [I-435], the LogP is 2.78^[a].
For `C[Si](C)(CCC(O)(Cn1cncc1C#N)C1(Cl)CC1)c1ccccc1` (stereo not drawn) [I-667], the LogP was 3.70^[a].
For `N#Cc1cncn1CC(O)c1ccc(Oc2ccc(I)cc2)cc1Br` (stereo not drawn) [I-110], the LogP is 3.48^[a].
On to `CCCC(C)C#CC(O)(Cn1cncc1C#N)C1(Cl)CC1` (stereo not drawn) [I-658], for which the LogP is 2.82^[a].
Turning to `CC(C)(C)C(O)(Cn1cncc1C#N)c1ccc(Cl)cc1` (stereo not drawn) [I-284], the LogP was 2.74^[a].
Consider `NC(=S)c1cncn1CC(O)(c1ccc(Cl)cc1Br)C1(F)CC1` (stereo not drawn) [I-505], for which the LogP is 1.92^[a].
With `N#Cc1cncn1CC(O)c1cnc(Oc2ccc(Br)nc2)cc1C(F)(F)F` (stereo not drawn) [I-153], the LogP was 2.41^[a].
For `N#Cc1cncn1CC(O)(c1c(F)cccc1Cl)C1(Cl)CC1` (stereo not drawn) [I-339], the LogP was 2.32^[a].
As for `CC(C)CC(O)(Cn1cncc1C#N)c1ccccc1C(F)(F)F` (stereo not drawn) [I-343], the LogP was 2.88^[a].
Take `N#Cc1cncn1CC(O)(C#Cc1ccc(C(F)(F)F)cc1)C1(Cl)CC1` (stereo not drawn) [I-350]: the LogP was 3.09^[a].
`N#Cc1cncn1CC(O)c1ccc(Oc2ccc(Cl)cc2)cc1C(F)(F)F` (stereo not drawn) [I-41]: the LogP is 3.35^[a].
`CC(O)(Cn1cncc1C#N)c1ccc(Oc2ccc(C(F)(F)F)cc2)cc1C(F)(F)F` (stereo not drawn) [I-206]: the LogP was 3.64^[a].
As for `COc1nc(Cl)ccc1C(O)(Cn1cncc1C#N)C1(Cl)CC1` (stereo not drawn) [I-561], the LogP was 2.51^[a].
On to `CC(O)(Cn1cncc1F)c1ccc(Oc2ccc(Cl)cc2)nc1C(F)(F)F` (stereo not drawn) [I-257], for which the LogP is 2.32^[a].
On to `N#Cc1cncn1CC(O)(c1ccc(F)c(F)c1)C1(F)CC1` (stereo not drawn) [I-445], for which the LogP was 2.17^[a].
On to `N#Cc1cncn1CC(O)(c1ccccc1C(F)(F)F)C1CC1` (stereo not drawn) [I-330], for which the LogP is 2.35^[a].
With `N#Cc1cncn1CC(O)(c1ccc(/C=C/C2CC2)cc1Cl)C1(Cl)CC1` (stereo not drawn) [I-365], the LogP was 3.37^[a].
As for `CC(O)(Cn1cncc1Cl)c1cnc(Oc2ccc(Cl)cc2)cc1Cl` (stereo not drawn) [I-162], the LogP was 2.41^[a].
Turning to `CC(C)(C)CC(O)(Cn1cncc1C#N)c1ccc(Cl)cc1` (stereo not drawn) [I-223], the LogP is 3.11^[a].
Take `N#Cc1cncn1CC(O)(C#CC1CCCC1)C1(F)CC1` (stereo not drawn) [I-453]: the LogP is 2.30^[a].
As to `N#Cc1cncn1CC(O)(c1ccc(Cl)nc1Br)C1(F)CC1` (stereo not drawn) [I-556], the LogP is 1.99^[a].
`C=CCOC(Cn1cncc1C#N)c1ccc(Oc2ccc(Br)cc2)cc1C(F)(F)F` (stereo not drawn) [I-89]: the LogP was 4.69^[a].
Consider `CCCC(O)(Cn1cncc1C#N)c1ccc(Cl)cc1F` (stereo not drawn) [I-401], for which the LogP was 2.78^[a].
Turning to `CC(O)(Cn1cncc1C#N)c1ccc(Oc2ccc(I)cc2)cc1Br` (stereo not drawn) [I-217], the LogP is 3.81^[a].
As to `N#Cc1cncn1CC(O)c1ccc(Oc2ccc(C(F)(F)F)nc2)nc1C(F)(F)F` (stereo not drawn) [I-143], the LogP is 2.56^[a].
As for `CC(O)(Cn1cncc1Cl)c1ccc(Oc2ccc(Br)cc2)cc1Br` (stereo not drawn) [I-185], the LogP was 3.06^[a].
In the case of `N#Cc1cncn1CC(O)(c1ccc(C2CC2)cc1Cl)C1CC1` (stereo not drawn) [I-406], the LogP is 2.92^[a].
The same measure, in the same setting: then `CCCC(O)(Cn1cncc1C#N)c1ccccc1C(F)(F)F` (stereo not drawn) [I-313], with 2.66^[a]; and `CC(C)(C)C(O)(Cn1cncc1C#N)c1ccc(Cl)c(Cl)c1` (stereo not drawn) [I-456], with 3.16^[a]; and `N#Cc1cncn1CC(O)c1ccc(Oc2ccc(Br)nc2)cc1Cl` (stereo not drawn) [I-73], with 2.47^[a].
On to `CCCC(O)(Cn1cncc1C#N)c1ccc(F)cc1F` (stereo not drawn) [I-400], for which the LogP was 2.39^[a].
For the compound `N#Cc1cncn1CC(O)(CC1CC1)c1cc(F)cc(Br)c1` (stereo not drawn) [I-532], the LogP is 2.65^[a].
As for `CCCCC(O)(Cn1cncc1C#N)c1ccccc1Br` (stereo not drawn) [I-283], the LogP was 2.89^[a].
As for `CCCC(C)C=CC(O)(Cn1cncc1C#N)C1(Cl)CC1` (stereo not drawn) [I-689], the LogP is 3.41^[a].
As for `OC(Cn1cncc1Cl)c1ccc(Oc2ccc(Cl)cn2)cc1C(F)(F)F` (stereo not drawn) [I-65], the LogP was 2.21^[a].
Same read-out and setting: then `N#Cc1cncn1CC(O)c1ccc(Oc2c(F)cc(Cl)cc2F)nc1C(F)(F)F` (stereo not drawn) [I-135], with 3.23^[a]; and `N#Cc1cncn1CC(O)(c1ccc(Cl)cc1Br)C1CC1` (stereo not drawn) [I-405], with 2.80^[a]; and `N#Cc1cncn1CC(O)(c1ccc(Cl)nc1F)C1(F)CC1` (stereo not drawn) [I-552], with 1.96^[a].
In the case of `CC(C)(C)CC(O)(Cn1cncc1C#N)c1ccc(Br)cc1Cl` (stereo not drawn) [I-334], the LogP was 2.83^[a].
As for `N#Cc1cncn1CC(O)(CC1CC1)c1c(F)cc(Cl)cc1F` (stereo not drawn) [I-512], the LogP was 2.67^[a].
In the case of `N#Cc1cncn1CC(O)c1ccc(Oc2ccc(Br)cc2)nc1C(F)(F)F` (stereo not drawn) [I-128], the LogP is 3.09^[a].
On to `CC(C)(C)C(O)(C#CCC1CCCCC1)Cn1cncc1C#N` (stereo not drawn) [I-541], for which the LogP is 3.72^[a].
Take `N#Cc1cncn1CC(O)(c1c(F)ccc(Cl)c1F)C1(Cl)CC1` (stereo not drawn) [I-622]: the LogP is 2.47^[a].
For `N#Cc1cncn1CC(O)c1cnc(Oc2ccc(C(F)(F)F)nc2)cc1C(F)(F)F` (stereo not drawn) [I-118], the LogP is 2.46^[a].
Consider `CC(C)(C)CC(C)(O)Cn1cncc1C#N` (stereo not drawn) [I-239], for which the LogP is 1.92^[a].
As to `OC(Cn1cncc1F)c1cnc(Oc2ccc(C(F)F)cc2)cc1C(F)(F)F` (stereo not drawn) [I-116], the LogP was 2.11^[a].
Same read-out and setting: then `CC(C)(C)C(O)(Cn1cncc1C#N)c1cc(Cl)c(Cl)c(Cl)c1` (stereo not drawn) [I-546], with 3.59^[a]; and `N#Cc1cncn1CC(O)(c1ccc(-c2ccccc2)cc1)C1(Cl)CC1` (stereo not drawn) [I-280], with 2.94^[a].
On the same count and under the same terms, then `Cc1ccc(Oc2ccc(C(C)(O)Cn3cncc3Cl)c(Cl)c2)cc1` (stereo not drawn) [I-156], with 3.13^[a].
With `CC(O)(Cn1cncc1F)c1ccc(Oc2ccc(Cl)cc2)cc1C(F)(F)F` (stereo not drawn) [I-211], the LogP was 2.64^[a].
On to `CCOC(Cn1cncc1C#N)c1ccc(Oc2ccc(Br)cc2)cc1C(F)(F)F` (stereo not drawn) [I-91], for which the LogP was 4.69^[a].
On to `CC(C)CC#CC(O)(Cn1cncc1C#N)C1(F)CC1` (stereo not drawn) [I-540], for which the LogP was 2.25^[a].
Take `C[Si](C)(C)C#CC(O)(Cn1cncc1C#N)C1(F)CC1` (stereo not drawn) [I-600]: the LogP is 2.45^[a].
With `CCC(=O)OC(Cn1cncc1F)c1ccc(Oc2ccc(Cl)cc2)cc1C(F)(F)F` (stereo not drawn) [I-105], the LogP was 3.54^[a].
For the compound `OC(Cn1cncc1Br)c1ccc(Oc2ccc(C(F)(F)F)cc2)cc1C(F)(F)F` (stereo not drawn) [I-38], the LogP was 2.96^[a].
On to `COc1ccc(C(O)(Cn2cncc2C#N)CC(C)(C)C)c(Cl)c1` (stereo not drawn) [I-367], for which the LogP was 3.21^[a].
Same read-out and setting: then `OC(Cn1cncc1Cl)c1cnc(Oc2ccc(Cl)cc2)cc1C(F)(F)F` (stereo not drawn) [I-25], with 2.55^[a].
On to `CCC(O)(Cn1cncc1C#N)c1ccccc1C(F)(F)F` (stereo not drawn) [I-329], for which the LogP is 2.27^[a].
Same read-out and setting: then `CC(C)(C)CC(O)(Cn1cncc1C#N)c1ccc2occc2c1` (stereo not drawn) [I-369], with 2.88^[a]; and `CC(C)(C)C#Cc1ccc(C(O)(Cn2cncc2C#N)C2(Cl)CC2)c(F)c1` (stereo not drawn) [I-653], with 3.79^[a]; and `N#Cc1cncn1CC(O)c1ccc(Oc2ccc(Cl)cc2)nc1C(F)(F)F` (stereo not drawn) [I-124], with 3.15^[a].
On to `N#Cc1cncn1CC(O)(c1cc(F)c(F)cc1Br)C1(F)CC1` (stereo not drawn) [I-688], for which the LogP was 2.36^[a].
`O=C(Cn1cncc1Br)c1ccc(Oc2ccc(Cl)cc2)cc1F` [IX-46] had a chromatographic logP (reversed phase HPLC column, method [a]: LC-UV, acidic range, 0.1% formic acid in water and acetonitrile as eluent (linear gradient from 10% to 95% acetonitrile)) of 2.86.
Regarding `CCCC(O)(Cn1cncc1C#N)c1ccc(Cl)cc1Br` (stereo not drawn) [I-409], the LogP is 3.13^[a].
Same read-out and setting: then `N#Cc1cncn1CC(O)c1ccc(Oc2ccc(Cl)cn2)cc1Cl` (stereo not drawn) [I-69], with 2.54 ^[a].
Take `OC(Cn1cncc1Cl)c1ccc(Oc2ccc(Cl)cc2)cc1Cl` (stereo not drawn) [I-01]: the LogP is 2.64^[a].
Turning to `OC(Cn1cncc1F)c1ccc(Oc2ccc(Cl)cc2)cc1Cl` (stereo not drawn) [I-46], the LogP is 2.28^[a].
Regarding `CC(O)(Cn1cncc1Br)c1ccc(Oc2ccc(Cl)cc2)cc1F` (stereo not drawn) [I-178], the LogP is 2.44^[a].
With `N#Cc1cncn1CC(O)(CC1CC1)c1cc(Br)cc(Br)c1` (stereo not drawn) [I-498], the LogP was 2.99^[a].
For the compound `CC(O)(Cn1cncc1F)c1ccc(Oc2ccc(Br)cc2)nc1C(F)(F)F` (stereo not drawn) [I-213], the LogP was 2.35^[a].
As for `C=CCC(O)(Cn1cncc1C#N)C1(F)CC1` (stereo not drawn) [I-664], the LogP was 1.56^[a].
On to `CC(O)(Cn1cncc1F)c1cnc(Oc2ccc(C(F)(F)F)cc2)cc1Br` (stereo not drawn) [I-243], for which the LogP is 2.36^[a].
On to `N#Cc1cncn1CC(O)(c1ccc(Br)cc1F)C1(F)CC1` (stereo not drawn) [I-403], for which the LogP is 2.43^[a].
As for `CCCCCC(O)(Cn1cncc1C#N)c1ccc(Cl)cc1` (stereo not drawn) [I-286], the LogP is 3.10^[a].

For orientation: chromatographic logP means a lipophilicity value derived from retention on a column.
